Measurements reported in US20140213648A1, “METHODS OF INCREASING EPA BLOOD LEVELS” (priority 2012, published 2014).

Assay: 12-week placebo-controlled study: red blood cell fatty acid concentrations, ratios and proportions (GC/FID)
Format: in vivo, human
Details: for AA red blood cell concentration, change from baseline (LS mean (SE)) / AA red blood cell concentration, end-of-treatment (mean) / DHA red blood cell concentration, change from baseline (LS mean (SE)) / DHA red blood cell concentration, end-of-treatment (mean) / Linoleic red blood cell concentration, change from baseline (LS mean (SE)) / Linoleic red blood cell concentration, end-of-treatment (mean) / Oleic red blood cell concentration, change from baseline (LS mean (SE)) / Oleic red blood cell concentration, end-of-treatment (mean) / Palmitic red blood cell concentration, change from baseline (LS mean (SE)) / Palmitic red blood cell concentration, end-of-treatment (mean) / Proportion of monounsaturated fatty acids to total fatty acids in RBCs, change from baseline (LS mean (SE)) / Proportion of monounsaturated fatty acids to total fatty acids in RBCs, end-of-treatment (mean (SD)) / Proportion of saturated fatty acids to total fatty acids in RBCs, change from baseline (LS mean (SE)) / Proportion of saturated fatty acids to total fatty acids in RBCs, end-of-treatment (mean (SD)) / Proportion of total omega-3 fatty acids to total fatty acids in RBCs, change from baseline (LS mean (SE)) / Proportion of total omega-3 fatty acids to total fatty acids in RBCs, end-of-treatment (mean (SD)) / Proportion of total omega-6 fatty acids to total fatty acids in RBCs, change from baseline (LS mean (SE)) / Proportion of total omega-6 fatty acids to total fatty acids in RBCs, end-of-treatment (mean (SD)) / Ratio of AA/EPA in red blood cells, change from baseline (LS mean (SE)) / Ratio of AA/EPA in red blood cells, end-of-treatment (mean) / Ratio of n-3/n-6 FA in red blood cells, change from baseline (LS mean (SE)) / Ratio of n-3/n-6 FA in red blood cells, end-of-treatment (mean) / Stearic red blood cell concentration, change from baseline (LS mean (SE)) / Stearic red blood cell concentration, end-of-treatment (mean): week 12
Experimental: A multi-center, placebo-controlled randomized, double-blind, 12-week study with an open-label extension is performed to evaluate the efficacy and safety of AMR101 in patients with fasting triglyceride levels ≧500 mg/dL. The primary objective of the study is to determine the efficacy of AMR101 2 g daily and 4 g daily, compared to placebo, in lowering fasting TG levels in patients with fasting TG levels ≧500 mg/dL and ≦1500 mg/dL (≧5.65 mmol/L and ≦16.94 mmol/L).
Eligible patients will be randomly assigned at Visit 4 (Week 0) to receive orally AMR101 2 g daily, AMR101 4 g daily, or placebo for the 12-week double-blind treatment period. AMR101 is provided in 1 g liquid-filled, oblong, gelatin capsules. The matching placebo capsule is filled with light liquid paraffin and contains 0 g of AMR101. During the double-blind treatment period, patients will take 2 capsules (AMR101 or matching placebo) in the morning and 2 in the evening for a total of 4 capsules per day. Patients in the AMR101 2 g/day treatment group will receive 1 AMR101 1 g capsule and 1 matching placebo capsule in the morning and in the evening. Patients in the AMR101 4 g/day treatment group will receive 2 AMR101 1 g capsules in the morning and evening.
Lipids were extracted from plasma and RBC suspensions and converted into fatty acid methyl esters for analysis using a standard validated gas chromatography/flame ionization detection method. Fatty acid parameters were compared between EPA treatment groups and placebo using an ANCOVA model with treatment, gender, type of statin therapy, and presence of diabetes as factors, and the baseline parameter value as a covariate. LSMs, SEs, and 2-tailed 95% confidence intervals for each treatment group and for each comparison were determined.

[1] = 2 g/day vs placebo, week 12, P <0.0001
[2] = 4 g/day vs placebo, week 12, P <0.0001

Structure (SMILES): CC/C=C\C/C=C\C/C=C\C/C=C\C/C=C\CCCC(=O)OCC [IPE, Icosapent ethyl]
- Dose dependence of EPA concentration in RBCs (in words) (2 g/day or 4 g/day, 12 weeks): significantly increased EPA concentrations in a linear, dose-dependent fashion
- AA red blood cell concentration, mean placebo-adjusted percent change from baseline (2 g/day vs placebo, week 12, P 0.0008): −8.0%
- Proportion of total omega-6 fatty acids to total fatty acids in RBCs, mean placebo-adjusted percent change from baseline (2 g/day vs placebo, week 12, P 0.0014): −13.2%
- Proportion of monounsaturated fatty acids to total fatty acids in RBCs, mean placebo-adjusted percent change from baseline (2 g/day vs placebo, week 12, P 0.0435): −3.1%
- Proportion of total omega-3 fatty acids to total fatty acids in RBCs, mean placebo-adjusted percent change from baseline (2 g/day vs placebo, week 12, P 0.1183): 23.8%
- Linoleic red blood cell concentration, mean placebo-adjusted percent change from baseline (2 g/day vs placebo, week 12, P 0.1278): −4.7%
- Proportion of saturated fatty acids to total fatty acids in RBCs, mean placebo-adjusted percent change from baseline (2 g/day vs placebo, week 12, P 0.3278): 1.1%
- Oleic red blood cell concentration, mean placebo-adjusted percent change from baseline (2 g/day vs placebo, week 12, P 0.3736): −2.1%
- DHA red blood cell concentration, mean placebo-adjusted percent change from baseline (2 g/day vs placebo, week 12, P 0.5859): −1.8%
- Stearic red blood cell concentration, mean placebo-adjusted percent change from baseline (2 g/day vs placebo, week 12, P 0.5886): 1.1%
- Palmitic red blood cell concentration, mean placebo-adjusted percent change from baseline (2 g/day vs placebo, week 12, P 0.9465): −0.1%
- Ratio of AA/EPA in red blood cells, mean placebo-adjusted percent change from baseline [1]: −91.1%
- Ratio of n-3/n-6 FA in red blood cells, mean placebo-adjusted percent change from baseline [1]: 65.5%
- AA red blood cell concentration, change from baseline (LS mean (SE)) (2 g/day): −20.9 (3.2)
- AA red blood cell concentration, end-of-treatment (mean) (2 g/day): 160.3
- DHA red blood cell concentration, change from baseline (LS mean (SE)) (2 g/day): −7.3 (1.5)
- DHA red blood cell concentration, end-of-treatment (mean) (2 g/day): 51.5
- Linoleic red blood cell concentration, change from baseline (LS mean (SE)) (2 g/day): −10.7 (4.7)
- Linoleic red blood cell concentration, end-of-treatment (mean) (2 g/day): 169.6
- Oleic red blood cell concentration, change from baseline (LS mean (SE)) (2 g/day): −1.4 (4.1)
- Oleic red blood cell concentration, end-of-treatment (mean) (2 g/day): 213.0
- Palmitic red blood cell concentration, change from baseline (LS mean (SE)) (2 g/day): −2.9 (5.4)
- Palmitic red blood cell concentration, end-of-treatment (mean) (2 g/day): 341.7
- Proportion of monounsaturated fatty acids to total fatty acids in RBCs, change from baseline (LS mean (SE)) (2 g/day): −0.1 (0.3) mol %
- Proportion of monounsaturated fatty acids to total fatty acids in RBCs, end-of-treatment (mean (SD)) (2 g/day): 20.0 (1.9) mol %
- Proportion of saturated fatty acids to total fatty acids in RBCs, change from baseline (LS mean (SE)) (2 g/day): 0.3 (0.4) mol %
- Proportion of saturated fatty acids to total fatty acids in RBCs, end-of-treatment (mean (SD)) (2 g/day): 44.4 (3.0) mol %
- Proportion of total omega-3 fatty acids to total fatty acids in RBCs, change from baseline (LS mean (SE)) (2 g/day): 2.6 (0.3) mol %
- Proportion of total omega-3 fatty acids to total fatty acids in RBCs, end-of-treatment (mean (SD)) (2 g/day): 8.7 (2.2) mol %
- Proportion of total omega-6 fatty acids to total fatty acids in RBCs, change from baseline (LS mean (SE)) (2 g/day): −2.9 (0.4) mol %
- Proportion of total omega-6 fatty acids to total fatty acids in RBCs, end-of-treatment (mean (SD)) (2 g/day): 27.0 (3.3) mol %
- Ratio of AA/EPA in red blood cells, change from baseline (LS mean (SE)) (2 g/day): −17.7 (0.9)
- Ratio of AA/EPA in red blood cells, end-of-treatment (mean) (2 g/day): 5.2
- Ratio of n-3/n-6 FA in red blood cells, change from baseline (LS mean (SE)) (2 g/day): 0.12 (0.010)
- Ratio of n-3/n-6 FA in red blood cells, end-of-treatment (mean) (2 g/day): 0.33
- Stearic red blood cell concentration, change from baseline (LS mean (SE)) (2 g/day): −4.7 (2.9)
- Stearic red blood cell concentration, end-of-treatment (mean) (2 g/day): 179.0
- Proportion of total omega-3 fatty acids to total fatty acids in RBCs, mean placebo-adjusted percent change from baseline (4 g/day vs placebo, week 12, P 0.0008): 53.4%
- Proportion of monounsaturated fatty acids to total fatty acids in RBCs, mean placebo-adjusted percent change from baseline (4 g/day vs placebo, week 12, P 0.0154): −3.9%
- Proportion of saturated fatty acids to total fatty acids in RBCs, mean placebo-adjusted percent change from baseline (4 g/day vs placebo, week 12, P 0.1145): 1.9%
- DHA red blood cell concentration, mean placebo-adjusted percent change from baseline (4 g/day vs placebo, week 12, P 0.1216): −5.2%
- Oleic red blood cell concentration, mean placebo-adjusted percent change from baseline (4 g/day vs placebo, week 12, P 0.1325): −3.7%
- Palmitic red blood cell concentration, mean placebo-adjusted percent change from baseline (4 g/day vs placebo, week 12, P 0.7427): −0.7%
- Stearic red blood cell concentration, mean placebo-adjusted percent change from baseline (4 g/day vs placebo, week 12, P 0.7565): −0.7%
- AA red blood cell concentration, mean placebo-adjusted percent change from baseline [2]: −15.7%
- Linoleic red blood cell concentration, mean placebo-adjusted percent change from baseline [2]: −13.0%
- Proportion of total omega-6 fatty acids to total fatty acids in RBCs, mean placebo-adjusted percent change from baseline [2]: −17.3%
- Ratio of AA/EPA in red blood cells, mean placebo-adjusted percent change from baseline [2]: −102%
- Ratio of n-3/n-6 FA in red blood cells, mean placebo-adjusted percent change from baseline [2]: 106.9%
- AA red blood cell concentration, change from baseline (LS mean (SE)) (4 g/day): −36.2 (3.4)
- AA red blood cell concentration, end-of-treatment (mean) (4 g/day): 148.8
- DHA red blood cell concentration, change from baseline (LS mean (SE)) (4 g/day): −9.7 (1.6)
- DHA red blood cell concentration, end-of-treatment (mean) (4 g/day): 51.7
- Linoleic red blood cell concentration, change from baseline (LS mean (SE)) (4 g/day): −25.0 (4.9)
- Linoleic red blood cell concentration, end-of-treatment (mean) (4 g/day): 164.7
- Oleic red blood cell concentration, change from baseline (LS mean (SE)) (4 g/day): −5.6 (4.1)
- Oleic red blood cell concentration, end-of-treatment (mean) (4 g/day): 208.3
- Palmitic red blood cell concentration, change from baseline (LS mean (SE)) (4 g/day): −5.8 (5.7)
- Palmitic red blood cell concentration, end-of-treatment (mean) (4 g/day): 340.6
- Proportion of monounsaturated fatty acids to total fatty acids in RBCs, change from baseline (LS mean (SE)) (4 g/day): −0.2 (0.3) mol %
- Proportion of monounsaturated fatty acids to total fatty acids in RBCs, end-of-treatment (mean (SD)) (4 g/day): 19.5 (1.9) mol %
- Proportion of saturated fatty acids to total fatty acids in RBCs, change from baseline (LS mean (SE)) (4 g/day): 0.6 (0.4) mol %
- Proportion of saturated fatty acids to total fatty acids in RBCs, end-of-treatment (mean (SD)) (4 g/day): 44.5 (2.5) mol %
- Proportion of total omega-3 fatty acids to total fatty acids in RBCs, change from baseline (LS mean (SE)) (4 g/day): 4.1 (0.3) mol %
- Proportion of total omega-3 fatty acids to total fatty acids in RBCs, end-of-treatment (mean (SD)) (4 g/day): 10.4 (2.3) mol %
- Proportion of total omega-6 fatty acids to total fatty acids in RBCs, change from baseline (LS mean (SE)) (4 g/day): −4.7 (0.5) mol %
- Proportion of total omega-6 fatty acids to total fatty acids in RBCs, end-of-treatment (mean (SD)) (4 g/day): 25.5 (2.9) mol %
- Ratio of AA/EPA in red blood cells, change from baseline (LS mean (SE)) (4 g/day): −19.9 (1.0)
- Ratio of AA/EPA in red blood cells, end-of-treatment (mean) (4 g/day): 3.1
- Ratio of n-3/n-6 FA in red blood cells, change from baseline (LS mean (SE)) (4 g/day): 0.20 (0.011)
- Ratio of n-3/n-6 FA in red blood cells, end-of-treatment (mean) (4 g/day): 0.42
- Stearic red blood cell concentration, change from baseline (LS mean (SE)) (4 g/day): −8.2 (3.1)
- Stearic red blood cell concentration, end-of-treatment (mean) (4 g/day): 178.1
